Activity calls are given as the source filed them. The rule behind the calls is not given here. Square brackets hold non-standard residues; d marks the D form. Peptide text beside a SMILES is read from it. * marks the point of attachment. Leu(ol) = CC(C)C[C@H](N)CO; dIva = CC[C@@](C)(N)C(=O)O; Octanoyl = CCCCCCCC(=O)*; Aib = CC(C)(N)C(=O)O
Key:
[Candida] auris = Antifungal activity against Candida auris; assay type: functional, organism-based; conditions: Candidozyma auris
SNU-449 = test: Antiproliferative activity against human SNU-449 cells assessed as reduction in cell viability incubated for 24 hrs by MTT assay; assay type: functional, cell-based; conditions: SNU-449, 24 h
SK-OV-3 = test: Antiproliferative activity against human SK-OV-3 cells assessed as reduction in cell viability incubated for 24 hrs by MTT assay; assay type: functional, cell-based; conditions: SK-OV-3, 24 h
Candida albicans = test: Antifungal activity against Candida albicans; assay type: functional, organism-based
HCT-116 = test: Antiproliferative activity against human HCT-116 cells assessed as reduction in cell viability incubated for 24 hrs by MTT assay; assay type: functional, cell-based; conditions: HCT-116, 24 h
MDA-MB-231 = test: Antiproliferative activity against human MDA-MB-231 cells assessed as reduction in cell viability incubated for 24 hrs by MTT assay; assay type: functional, cell-based; conditions: MDA-MB-231, 24 h
Fusarium oxysporum = test: Antifungal activity against Fusarium oxysporum KCTC 16654; assay type: functional, organism-based
DU-145 = test: Antiproliferative activity against human DU-145 cells assessed as reduction in cell viability incubated for 24 hrs by MTT assay; assay type: functional, cell-based; conditions: DU-145, 24 h

Structure (SMILES) | IC50 (SNU-449) [µM] | IC50 (SK-OV-3) [µM] | IC50 (HCT-116) [µM] | IC50 (MDA-MB-231) [µM] | IC50 (DU-145) [µM] | Activity ([Candida] auris) | Activity (Candida albicans) | Activity (Fusarium oxysporum)
CCCCCCCC(=O)NCC(=O)N[C@@H](C)C(=O)N[C@H](C(=O)N[C@](C)(CC)C(=O)N[C@@H](C)C(=O)N[C@@H](CC(C)C)C(=O)N[C@H](CO)CC(C)C)C(C)C | 39 | 47 | 8.9 | 11.5 | 15.1 | inactive | inactive | inactive
CC[C@H](C)[C@H](NC(=O)C(C)(C)NC(=O)C(C)(C)NC(=O)[C@H](C)NC(=O)C(C)(C)NC(C)=O)C(=O)N[C@@H](CCC(N)=O)C(=O)NC(C)(C)C(=O)NC(C)(C)C(=O)NC(C)(C)C(=O)N[C@@H](CO)C(=O)N[C@@H](CC(C)C)C(=O)NC(C)(C)C(=O)N1CCC[C@H]1C(=O)N[C@H](C(=O)NC(C)(C)C(=O)NC(C)(C)C(=O)N[C@@H](CCC(N)=O)C(=O)N[C@@H](CCC(N)=O)C(=O)N[C@H](CO)CC(C)C)C(C)C (Ac-[Aib]A[Aib][Aib]IQ[Aib][Aib][Aib]SL[Aib]PV[Aib][Aib]QQ[Leu(ol)]) | 5.7 | 3.8 | 3.2 | 2.3 | 2.1 | inactive | inactive | inactive
CC(=O)NC(C)(C)C(=O)N[C@@H](C)C(=O)NC(C)(C)C(=O)NC(C)(C)C(=O)N[C@@H](CC(C)C)C(=O)N[C@@H](CCC(N)=O)C(=O)NC(C)(C)C(=O)NC(C)(C)C(=O)NC(C)(C)C(=O)N[C@@H](CO)C(=O)N[C@@H](CC(C)C)C(=O)NC(C)(C)C(=O)N1CCC[C@H]1C(=O)N[C@H](C(=O)NC(C)(C)C(=O)NC(C)(C)C(=O)N[C@@H](CCC(N)=O)C(=O)N[C@@H](CCC(N)=O)C(=O)N[C@H](CO)CC(C)C)C(C)C (Ac-[Aib]A[Aib][Aib]LQ[Aib][Aib][Aib]SL[Aib]PV[Aib][Aib]QQ[Leu(ol)]) | 10.4 | 4.1 | 3.7 | 2.3 | 4.4 | inactive | inactive | inactive
CC(=O)NC(C)(C)C(=O)N[C@@H](CO)C(=O)NC(C)(C)C(=O)NC(C)(C)C(=O)N[C@@H](CC(C)C)C(=O)N[C@@H](CCC(N)=O)C(=O)NC(C)(C)C(=O)NC(C)(C)C(=O)NC(C)(C)C(=O)N[C@@H](CO)C(=O)N[C@@H](CC(C)C)C(=O)NC(C)(C)C(=O)N1CCC[C@H]1C(=O)N[C@H](C(=O)NC(C)(C)C(=O)NC(C)(C)C(=O)N[C@@H](CCC(N)=O)C(=O)N[C@@H](CCC(N)=O)C(=O)N[C@H](CO)CC(C)C)C(C)C (Ac-[Aib]S[Aib][Aib]LQ[Aib][Aib][Aib]SL[Aib]PV[Aib][Aib]QQ[Leu(ol)]) | 13 | 12.4 | 4.4 | 2.5 | 3.3 | inactive | inactive | inactive
CCCCCCCC(=O)NCC(=O)N[C@@H](C)C(=O)N[C@@H](CC(C)C)C(=O)NC(C)(C)C(=O)N[C@@H](C)C(=O)N[C@H](C(=O)N[C@H](CO)CC(C)C)[C@@H](C)CC (Octanoyl-GAL[Aib]AI[Leu(ol)]) | > 150 | 18.7 | 27.4 | 17.6 | 25.4 | inactive | inactive | inactive
CCCCCCCC(=O)NCC(=O)N[C@@H](C)C(=O)N[C@@H](CC(C)C)C(=O)NC(C)(C)C(=O)N[C@@H](C)C(=O)N[C@@H](CC(C)C)C(=O)N[C@H](CO)CC(C)C (Octanoyl-GAL[Aib]AL[Leu(ol)]) | 17.3 | 12.5 | 12 | 7.3 | 13 | inactive | inactive | inactive
CCCCCCCC(=O)NCC(=O)N[C@@H](C)C(=O)N[C@@H](CC(C)C)C(=O)N[C@](C)(CC)C(=O)N[C@@H](C)C(=O)N[C@H](C(=O)N[C@H](CO)CC(C)C)[C@@H](C)CC (Octanoyl-GAL[dIva]AI[Leu(ol)]) | 8.8 | 6.3 | 8 | 4.5 | 4.5 | inactive | inactive | inactive
CCCCCCCC(=O)NCC(=O)N[C@@H](C)C(=O)N[C@H](C(=O)NC(C)(C)C(=O)N[C@@H](C)C(=O)N[C@@H](CC(C)C)C(=O)N[C@H](CO)CC(C)C)C(C)C (Octanoyl-GAV[Aib]AL[Leu(ol)]) | > 150 | 60.7 | > 150 | 25.7 | 31.8 | inactive | inactive | inactive
COc1cccc2c1C(=O)c1c(O)c3c(c(O)c1C2=O)C[C@@](O)(C(=O)CO)C[C@@H]3O[C@H]1C[C@H](N)[C@H](O)[C@H](C)O1 [DOXORUBICIN] | 71.4 | 88.4 | 73.6 | – | 91.2 | inactive | inactive | inactive

Now from value to compound, other results behind:

IC50 (SNU-449) [µM] | IC50 (SK-OV-3) [µM] | IC50 (HCT-116) [µM] | IC50 (MDA-MB-231) [µM] | IC50 (DU-145) [µM] | Structure (SMILES) | Activity ([Candida] auris) | Activity (Candida albicans) | Activity (Fusarium oxysporum)
222 | 50.3 | 37.9 | 18.5 | 18.2 | CCCCCCCC(=O)NCC(=O)N[C@@H](C)C(=O)N[C@@H](CC(C)C)C(=O)N[C@](C)(CC)C(=O)N[C@@H](C)C(=O)N[C@@H](CC(C)C)C(=O)N[C@H](CO)CC(C)C | inactive | inactive | inactive
> 150 | 26.7 | 9 | 8.7 | 12.2 | CC[C@H](C)[C@H](NC(=O)C(C)(C)NC(=O)C(C)(C)NC(=O)[C@H](C)NC(=O)C(C)(C)NC(C)=O)C(=O)N[C@@H](CCC(N)=O)C(=O)NC(C)(C)C(=O)NC(C)(C)C(=O)NC(C)(C)C(=O)N[C@@H](CO)C(=O)N[C@H](C(=O)NC(C)(C)C(=O)N1CCC[C@H]1C(=O)N[C@H](C(=O)NC(C)(C)C(=O)NC(C)(C)C(=O)N[C@@H](CCC(N)=O)C(=O)N[C@@H](CCC(N)=O)C(=O)N[C@H](CO)CC(C)C)C(C)C)C(C)C (Ac-[Aib]A[Aib][Aib]IQ[Aib][Aib][Aib]SV[Aib]PV[Aib][Aib]QQ[Leu(ol)]) | inactive | inactive | inactive
30.8 | 11.9 | 8.7 | 7.2 | 12 | CC(=O)NC(C)(C)C(=O)N[C@@H](C)C(=O)NC(C)(C)C(=O)NC(C)(C)C(=O)N[C@@H](CC(C)C)C(=O)N[C@@H](CCC(N)=O)C(=O)NC(C)(C)C(=O)NC(C)(C)C(=O)NC(C)(C)C(=O)N[C@@H](CO)C(=O)N[C@H](C(=O)NC(C)(C)C(=O)N1CCC[C@H]1C(=O)N[C@H](C(=O)NC(C)(C)C(=O)NC(C)(C)C(=O)N[C@@H](CCC(N)=O)C(=O)N[C@@H](CCC(N)=O)C(=O)N[C@H](CO)CC(C)C)C(C)C)C(C)C (Ac-[Aib]A[Aib][Aib]LQ[Aib][Aib][Aib]SV[Aib]PV[Aib][Aib]QQ[Leu(ol)]) | inactive | inactive | inactive
11.3 | 2.4 | 4.3 | 1 | 2 | CC[C@H](C)[C@H](NC(=O)C(C)(C)NC(=O)C(C)(C)NC(=O)[C@H](CO)NC(=O)C(C)(C)NC(C)=O)C(=O)N[C@@H](CCC(N)=O)C(=O)NC(C)(C)C(=O)NC(C)(C)C(=O)NC(C)(C)C(=O)N[C@@H](CO)C(=O)N[C@@H](CC(C)C)C(=O)NC(C)(C)C(=O)N1CCC[C@H]1C(=O)N[C@H](C(=O)NC(C)(C)C(=O)NC(C)(C)C(=O)N[C@@H](CCC(N)=O)C(=O)N[C@@H](CCC(N)=O)C(=O)N[C@H](CO)CC(C)C)C(C)C (Ac-[Aib]S[Aib][Aib]IQ[Aib][Aib][Aib]SL[Aib]PV[Aib][Aib]QQ[Leu(ol)]) | inactive | inactive | inactive
131 | 41.1 | 32.8 | 80.2 | 30.9 | CC(=O)NC(C)(C)C(=O)N[C@@H](CO)C(=O)NC(C)(C)C(=O)NC(C)(C)C(=O)N[C@@H](CC(C)C)C(=O)N[C@@H](CCC(N)=O)C(=O)NC(C)(C)C(=O)NC(C)(C)C(=O)NC(C)(C)C(=O)N[C@@H](CO)C(=O)N[C@H](C(=O)NC(C)(C)C(=O)N1CCC[C@H]1C(=O)N[C@H](C(=O)NC(C)(C)C(=O)NC(C)(C)C(=O)N[C@@H](CCC(N)=O)C(=O)N[C@@H](CCC(N)=O)C(=O)N[C@H](CO)CC(C)C)C(C)C)C(C)C (Ac-[Aib]S[Aib][Aib]LQ[Aib][Aib][Aib]SV[Aib]PV[Aib][Aib]QQ[Leu(ol)]) | inactive | inactive | inactive

From ChEMBL document CHEMBL5584297, “Cytotoxic Peptaibols from Trichoderma strigosum” (J Nat Prod, 2024)
